Experiment [1] deals with T1, type Iα PKA holoenzyme (Bos taurus, UniProt P00514).
T1 construct: made in house; host or cells: E. coli
In words: High throughput FP assay format (TR-IP20, C-subunit, R-subunit, cGMP). The format is binding. The following applies: for reduction in FP signal due to competition with ATP: HTS format, compound at 200 μM, 2 mM ATP; for HTS result (agonist / antagonist by FP reading versus 3 μM cGMP alone): tested at 25 μM, 40 nM TR-IP20. Here is the method: The high throughput screening (HTS) was performed by addition of 1 μL of a test compound in DMSO to 49 μL buffer containing TR-IP20, C-subunit, R-subunit, and cGMP.
An agonistic Z′-factor was calculated between the half maximal and maximal FP response, while the antagonistic Z′-factor was calculated between the minimal and half maximal FP response. The maximal FP response was calculated by adding 1 μL cGMP in DMSO (500 μM final) to 49 μL HTS mix. Half maximal binding was calculated when 1 μL DMSO was used instead and minimal FP response was calculated by adding 1 μL Rp-8-Br-cAMPS in DMSO (50 μM final). Final DMSO concentration was 2%.
Antagonism by Rp-8-Br-cAMPS was measured with the HTS format.
Finally, to validate the assay, screening was performed on a selection of nucleotide and xanthine derivatives. […] Included in Set 1 are the known PKA effectors 8-Cl-cAMP (agonist) and Rp-8-Br-cAMPS (antagonist).

Experiment [2] has as its target PKA C-subunit (Homo sapiens, UniProt P17612). The following applies: cited from earlier work.
Experiment [3] concerns the target C-subunit of protein kinase A (Mus musculus, UniProt P05132, C200A). The experiment is described as follows: biochemical.

The values below come from patent US7892776B2, “Screening assay to identify modulators of protein kinase A” (The Regents of the University of California, priority 2007, dated 2011).

No end group written: not given here.

T1 sequence (P00514 with tags, fused parts or gaps): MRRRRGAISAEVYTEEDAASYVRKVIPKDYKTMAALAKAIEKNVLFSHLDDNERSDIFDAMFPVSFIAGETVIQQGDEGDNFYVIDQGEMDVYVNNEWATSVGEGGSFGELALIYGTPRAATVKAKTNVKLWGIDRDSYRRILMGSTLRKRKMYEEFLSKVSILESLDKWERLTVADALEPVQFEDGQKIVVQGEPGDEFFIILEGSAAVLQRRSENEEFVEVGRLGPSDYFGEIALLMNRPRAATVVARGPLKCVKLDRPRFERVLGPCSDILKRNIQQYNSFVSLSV

For `CN[C@@H]1C[C@H]2O[C@@](C)([C@@H]1OC)n1c3ccccc3c3c4c(c5c6ccccc6n2c5c31)C(=O)NC4` [staurosporine], the “reduction in FP signal due to competition with ATP” value in experiment [1] is on record as “no reduction in FP signal”.

For the molecule `Nc1ncnc2c1nc(Cl)n2[C@@H]1O[C@@H]2COP(=O)(O)O[C@H]2[C@H]1O` [8-Cl-cAMP], in experiment [1], the “HTS result (agonist / antagonist by FP reading versus 3 μM cGMP alone)” value was “agonist”.

In the case of `Nc1ncnc2c1nc(Br)n2C1OC2COP(O)(=S)OC2C1O` (stereo not shown) [Rp-8-Br-cAMPS], the “HTS result (agonist / antagonist by FP reading versus 3 μM cGMP alone)” value in experiment [1] is listed as “antagonist”.

Regarding `Nc1ncnc2c1ncn2[C@@H]1O[C@H](COP(=O)(O)OP(=O)(O)OP(=O)(O)O)[C@@H](O)[C@H]1O` [ATP], the “enhancement of the affinity of the C-subunit for ATP” value in experiment [2] (in the presence of the R-subunit or IP20, literature (Lew et al. 1997)) was “over 2000 fold”. Also, the Kd in experiment [2] (read-out: affinity of ATP for the PKA C-subunit) is around 25 µM.

With GRTGRRNAIHD-NH2 [PKI (14-24)], the IC50 in experiment [3] amounted to 2.7 µM.

For the molecule `O=S(=O)(NCCNCC=Cc1ccc(Br)cc1)c1cccc2cnccc12` [H89, N-[2-(p-bromocinnamylamino)ethyl]-5-isoquinolinesulfonamide], the “reduction in FP signal due to competition with ATP” value in experiment [1] is “no reduction in FP signal”.
